From publication PMC6695788, “Screening and Isolating Major Aldose Reductase Inhibitors from the Seeds of Evening Primrose (Oenothera biennis)” (Molecules, 2019)
Where two headings read alike, the source gives them in different places.

Columns and labels:
[1] = molecular target: T1, rat lens aldose reductase (RLAR) (Rattus norvegicus, UniProt P07943); assay: Rat lens aldose reductase (RLAR) inhibitory assay; type: biochemical; details: mean ± SD (n = 3); for inhibition at 10 µg/mL: sample concentration 10 μg/mL
T1 construct: the supernatant that retained the RLAR was collected for further tests; from tissue; host or cells: eye lens of Sprague-Dawley rats
Protocol: To extract the RLAR, the eye lens removed from the rats were first homogenized with sodium phosphate buffer (0.1 M, pH 6.2). […] Finally, the supernatant that retained the RLAR was collected for further tests. […] The inhibitory activities of the samples can be calculated using Equation (1):(1) Inhibition (%)=(1−ΔAsample−ΔAblank/ΔAcontrol−ΔAblank)×100% where ΔAcontrol is the absorbance change in 3 min of the tested mixture without the sample; ΔAblank is the absorbance change in 3 min of the tested mixture without RLAR; and ΔAsample is the absorbance change in 3 min of the tested mixture. The IC50 values of the active samples were also calculated and listed, where IC50 indicates the concentration of the tested sample required to consume half of the NADPH.

[2] = molecular target: T2, human recombinant aldose reductase (Homo sapiens, UniProt P15121); assay: Affinity-based ultrafiltration-HPLC screening; type: binding; details: ESME incubated with AR 6.9 µM, 37 °C, 30 min, ultrafiltrate analysed
T2 construct: purchased Wako Pure Chemical Industries Ltd. (Osaka, Japan)
Protocol: The ultrafiltrate was collected for further HPLC analysis.
HPLC analysis was performed using an Agilent 1100 HPLC instrument (Agilent, Santa Clara, CA, USA) equipped with an Eclipse Plus C18 column (150 mm length, 4.6 mm i.d., and 5 µm particle size; Agilent, Santa Clara, CA, USA). The temperature of the column oven was set at 30 °C and the injection volumes of the samples were 10 µL.

Row | IC50 ([1]; isolated compounds, read-out: IC50) [µM] | inhibition at 10 µg/mL ([1]; isolated compounds) [%] | HPLC peak area after incubation with human recombinant aldose reductase vs without [2] | Structure (SMILES) | IC50 ([1]; IC50, isolated compounds) [µM] | inhibition at 10 µg/mL ([1]; extracts and fractions) [%]
1 | 14.8 ± 3.17 | 69.6 ± 1.99 | decreased | Oc1cc(O)c2c(c1)O[C@H](c1ccc(O)c(O)c1)[C@@H](O)C2 [Catechin (3), catechin] | – | –
2 | – | 32.2 ± 0.97 | decreased | COC(=O)c1cc(O)c(O)c(O)c1 [Methyl gallate (4), methyl gallate] | – | –
3 | – | 44.6 ± 1.99 | decreased | Oc1cc(O)c2c(c1)O[C@H](c1ccc(O)c(O)c1)[C@@H](O)[C@@H]2c1c(O)cc(O)c2c1O[C@H](c1ccc(O)c(O)c1)[C@@H](O)C2 [Procyanidin B3 (2), procyanidin B3] | – | –
4 | – | – | – | O=c1c(O)c(-c2ccc(O)c(O)c2)oc2cc(O)cc(O)c12 [Quercetin, quercetin, reference compound] | – | 81.6 ± 3.81

Row | Structure (SMILES) | IC50 ([1]; isolated compounds, read-out: IC50) [µM] | inhibition at 10 µg/mL ([1]; isolated compounds) [%] | HPLC peak area after incubation with human recombinant aldose reductase vs without [2] | IC50 ([1]; IC50, isolated compounds) [µM] | inhibition at 10 µg/mL ([1]; extracts and fractions) [%]
5 | O=C(O)c1cc(O)c(O)c(O)c1 [Gallic acid (1), gallic acid] | – | 80.2 ± 1.56 | decreased | 11.5 ± 1.82 | –
